Biological target: T1, human IL-17AA (Homo sapiens, UniProt Q16552)
T1 construct: host or cells: HEK (human embryonic kidney) cells
T1 sequence (Q16552 24-155): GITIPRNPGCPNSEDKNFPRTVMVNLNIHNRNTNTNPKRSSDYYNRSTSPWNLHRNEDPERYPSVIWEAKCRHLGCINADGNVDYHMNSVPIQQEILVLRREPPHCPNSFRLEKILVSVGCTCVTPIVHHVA
Test: IL-8 release assay in human epithelial keratinocytes adult (HEKa)
Assay type: cell-based
Conditions: HEKa cells, 3 ng/mL HEK-human IL-17AA + 10 ng/mL human TNFalpha; read-out: Rel EC50 IL-8 release assay
Method in brief: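 IL-8 release, quantified by HTRF and normalized to controls, reports IL-17 signaling in HEKa cells treated with compound plus final 3 ng/mL IL-17AA (HEK-derived) and 10 ng/mL TNF-alpha for 68-72 h; TNF-alpha-only wells set 100% inhibition. Four-parameter logistic fits (r^2>0.9) give relative IC50 and Emax; PrestoBlue flags cytotoxicity.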

SMILES	EC50 [µM]
CCC(F)(F)C(=O)N[C@H](C(=O)Nc1ccc(-c2c(C)n[nH]c2C)cc1)C1CCCCC1 [Example 56, N-[(1S)-1-cyclohexyl-2-[4-(3,5-dimethyl-1H-pyrazol-4-yl)anilino]-2-oxo-ethyl]-2,2-difluoro-butanamide]	0.1 to 1
Cc1n[nH]c(C)c1-c1ccc(NC(=O)[C@@H](NC(=O)C2(C)CC2)C2CCCCC2)cc1 [Example 57, N-[(1S)-1-cyclohexyl-2-[4-(3,5-dimethyl-1H-pyrazol-4-yl)anilino]-2-oxo-ethyl]-1-methyl-cyclopropanecarboxamide]	0.1 to 1
Cc1nocc1C(=O)N[C@H](C(=O)Nc1ccc(-c2c(C)n[nH]c2C)cc1)C1CCCCC1 [Example 58, N-[(1S)-1-cyclohexyl-2-[4-(3,5-dimethyl-1H-pyrazol-4-yl)anilino]-2-oxo-ethyl]-3-methyl-isoxazole-4-carboxamide]	0.1 to 1
Cc1nocc1C(=O)N[C@H](C(=O)Nc1ccc(-c2c(C)n[nH]c2C)cc1)C1CCCCCC1 [Example 59, N-[(1S)-1-cycloheptyl-2-[4-(3,5-dimethyl-1H pyrazol-4-yl)anilino]-2-oxo-ethyl]-3-methyl-isoxazole-4-carboxamide]	< 0.1
Cc1n[nH]c(C)c1-c1ccc(NC(=O)[C@@H](NC(=O)c2cnnn2C)C2CCCCC2)cc1 [Example 60, N-[(1S)-1-cyclohexyl-2-[4-(3,5-dimethyl-1H-pyrazol-4-yl)anilino]-2-oxo-ethyl]-3-methyl-triazole-4-carboxamide]	0.1 to 1
Cc1n[nH]c(C)c1-c1ccc(NC(=O)[C@@H](NC(=O)c2cnnn2-c2ccccc2)C2CCCCC2)cc1 [Example 61, N-[(1S)-1-cyclohexyl-2-[4-(3,5-dimethyl-1H-pyrazol-4-yl)anilino]-2-oxo-ethyl]-3-phenyl-triazole-4-carboxamide]	0.1 to 1
Cc1n[nH]c(C)c1-c1ccc(NC(=O)[C@@H](NC(=O)c2cnnn2C)C2CCCCCC2)cc1 [Example 62, N-[(1S)-1-cycloheptyl-2-[4-(3,5-dimethyl-1H-pyrazol-4-yl)anilino]-2-oxo-ethyl]-3-methyl-triazole-4-carboxamide]	0.1 to 1
Cc1n[nH]c(C)c1-c1ccc(NC(=O)[C@@H](NC(=O)c2cnnn2-c2ccccc2)C2CCCCCC2)cc1 [Example 63, N-[(1S)-1-cycloheptyl-2-[4-(3,5-dimethyl-1H-pyrazol-4-yl)anilino]-2-oxo-ethyl]-3-phenyl-triazole-4-carboxamide]	< 0.1
Cc1n[nH]c(C)c1-c1ccc(NC(=O)[C@@H](NC(=O)c2c[nH]c3cnccc23)C2CCCCC2)cc1 [Example 64, N-[(1S)-1-cyclohexyl-2-[4-(3,5-dimethyl-1H-pyrazol-4-yl)anilino]-2-oxo-ethyl]-1H-pyrrolo[2,3-c]pyridine-3-carboxamide]	0.1 to 1
Cc1n[nH]c(C)c1-c1ccc(NC(=O)[C@@H](NC(=O)c2c[nH]c3ncccc23)C2CCCCC2)cc1 [Example 65, N-[(1S)-1-cyclohexyl-2-[4-(3,5-dimethyl-1H-pyrazol-4-yl)anilino]-2-oxo-ethyl]-1H-pyrrolo[2,3-b]pyridine-3-carboxamide]	> 1

Continued, values first:

EC50 [µM]	SMILES
0.1 to 1	Cc1n[nH]c(C)c1-c1ccc(NC(=O)[C@@H](NC(=O)C2(F)CC2)C2CCCCC2)cc1 [Example 66, N-[(1S)-1-cyclohexyl-2-[4-(3,5-dimethyl-1H-pyrazol-4-yl)anilino]-2-oxo-ethyl]-1-fluoro-cyclopropanecarboxamide]
> 1	Cc1n[nH]c(C)c1-c1ccc(NC(=O)[C@@H](NC(=O)C2(F)CC2)C2CCC(F)(F)CC2)cc1 [Example 67, N-[(1S)-1-(4,4-difluorocyclohexyl)-2-[4-(3,5-dimethyl-1H-pyrazol-4-yl)anilino]-2-oxo-ethyl]-1-fluoro-cyclopropanecarboxamide]
0.1 to 1	Cc1n[nH]c(C)c1-c1ccc(NC(=O)[C@@H](NC(=O)c2cnn3ccccc23)C2CCCCC2)cc1 [Example 68, N-[(1S)-1-cyclohexyl-2-[4-(3,5-dimethyl-1H-pyrazol-4-yl)anilino]-2-oxo-ethyl]pyrazolo[1,5-a]pyridine-3-carboxamide]
> 1	Cc1n[nH]c(C)c1-c1ccc(NC(=O)[C@@H](NC(=O)c2conc2-c2ccc(Cl)cc2)C2CCCCC2)cc1 [Example 69, 3-(4-chlorophenyl)-N-[(1S)-1-cyclohexyl-2-[4-(3,5-dimethyl-1H-pyrazol-4-yl)anilino]-2-oxo-ethyl]isoxazole-4-carboxamide]
0.1 to 1	Cc1n[nH]c(C)c1-c1ccc(NC(=O)[C@@H](NC(=O)c2cnn3ncccc23)C2CCCCC2)cc1 [Example 70, N-[(1S)-1-cyclohexyl-2-[4-(3,5-dimethyl-1H-pyrazol-4-yl)anilino]-2-oxo-ethyl]pyrazolo[1,5-b]pyridazine-3-carboxamide]
0.1 to 1	Cc1n[nH]c(C)c1-c1ccc(NC(=O)[C@@H](NC(=O)c2cn(C)c3ncccc23)C2CCCCC2)cc1 [Example 71, N-[(1S)-1-cyclohexyl-2-[4-(3,5-dimethyl-1H-pyrazol-4-yl)anilino]-2-oxo-ethyl]-1-methyl-pyrrolo[2,3-b]pyridine-3-carboxamide]
> 1	Cc1n[nH]c(C)c1-c1ccc(NC(=O)[C@@H](NC(=O)c2cnc3ncccn23)C2CCCCC2)cc1 [Example 72, N-[(1S)-1-cyclohexyl-2-[4-(3,5-dimethyl-1H-pyrazol-4-yl)anilino]-2-oxo-ethyl]imidazo[1,2-a]pyrimidine-3-carboxamide]
0.1 to 1	Cc1n[nH]c(C)c1-c1ccc(NC(=O)[C@@H](NC(=O)c2coc3ccccc23)C2CCCCC2)cc1 [Example 73, N-[(1S)-1-cyclohexyl-2-[4-(3,5-dimethyl-1H-pyrazol-4-yl)anilino]-2-oxo-ethyl]benzofuran-3-carboxamide]
0.1 to 1	Cc1n[nH]c(C)c1-c1ccc(NC(=O)[C@@H](NC(=O)c2csc3ccccc23)C2CCCCC2)cc1 [Example 74, N-[(1S)-1-cyclohexyl-2-[4-(3,5-dimethyl-1H-pyrazol-4-yl)anilino]-2-oxo-ethyl]benzothiophene-3-carboxamide]
0.1 to 1	Cc1n[nH]c(C)c1-c1ccc(NC(=O)[C@@H](NC(=O)c2cnnn2C(C)C)C2CCCCC2)cc1 [Example 75, N-[(1S)-1-cyclohexyl-2-[4-(3,5-dimethyl-1H-pyrazol-4-yl)anilino]-2-oxo-ethyl]-3-isopropyl-triazole-4-carboxamide]
0.1 to 1	Cc1n[nH]c(C)c1-c1ccc(NC(=O)[C@@H](NC(=O)c2ccnn2C)[C@@H]2CCc3ccccc32)cc1 [Example 76, N-[(1S)-2-[4-(3,5-dimethyl-1H-pyrazol-4-yl)anilino]-1-[(1R)-indan-1-yl]-2-oxo-ethyl]-2-methyl-pyrazole-3-carboxamide]
0.1 to 1	Cc1n[nH]c(C)c1-c1ccc(NC(=O)[C@@H](NC(=O)c2ccnn2C)[C@@H]2CCc3ccc(Cl)cc32)cc1 [Example 77, N-[(1S)-1-[(1R)-6-chloroindan-1-yl]-2-[4-(3,5-dimethyl-1H-pyrazol-4-yl)anilino]-2-oxo-ethyl]-2-methyl-pyrazole-3-carboxamide]
> 1	Cc1n[nH]c(C)c1-c1ccc(NC(=O)[C@@H](NC(=O)c2ccnn2C)[C@@H]2CCc3ccc(C#N)cc32)cc1 [Example 78, N-[(1S)-1-[(1R)-6-cyanoindan-1-yl]-2-[4-(3,5-dimethyl-1H-pyrazol-4-yl)anilino]-2-oxo-ethyl]-2-methyl-pyrazole-3-carboxamide]
